Experiment [1] concerns HCT 116 cells. Kind of experiment: Cell growth assay (CellTiter-Glo 2.0), HCT 116 MSI-H cell line. The conditions noted are these: Homo sapiens, HCT-116, 120 h, read-out: Cell Growth Inhibition GI50 HCT-116. A general note: In ATP-based viability assays light output follows the ATP content of the culture.
Protocol: (§1) The effects of compound on cellular viability were determined using the CellTiter-Glo® 2.0 Luminescent Cell Viability Assay (Promega, Madison, WI).
(§2) SW480 cells were seeded at 1,000 cells per well in Eagle's Minimum Essential Medium (EMEM) with 10% FBS. Both cell lines were seeded in a volume of 50 μL medium per well. […] The concentration range was adjusted as needed for compounds of different potencies. The cells treated with compounds were incubated for 5 days at 37° C. in 5% CO2. […] The plate was then read on a Clariostar plate reader (BMG Labtech, Cary, NC) in luminescence mode. The previously measured baseline cell viability was subtracted from the luminescence value of each well, and cell viability (% of DMSO) was plotted as a function of log compound concentration. The EC50 was then calculated for each compound using Dotmatics Software (San Diego, CA).
The target in experiment [2] is T1, WRN C727 (Homo sapiens, UniProt Q14191).
T1 construct: endogenous in cells; host or cells: OCI-AML2
The experiment is described as follows: Target engagement, in vitro (lysate), OCI-AML2. In kind it is binding. The conditions noted are these: read-out: OCI-AML2 WRN C727 TE50 in vitro (lysate). The procedure, abridged: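 OCI-AML2 intact cells or lysates dosed with compound, then a cysteine-reactive probe; after trypsin digestion, probe-labelled peptides were streptavidin-enriched and quantified by nano-LC parallel reaction monitoring MS. Engagement (%) relative to DMSO controls.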

The test system of experiment [3] is SW480 cells. Kind of experiment: Cell growth assay (CellTiter-Glo 2.0), SW480 MSS cell line. The conditions noted are these: Homo sapiens, SW480, 120 h, read-out: Cell Growth Inhibition GI50 SW480.
Protocol: as §1, §2
Experiment [4] concerns the target hWRN(519-1227)_C-H3CV-GFP-10His (Homo sapiens, UniProt Q14191). The experiment is described as follows: Helicase Assay for WRN Inhibition (ATP-dependent, fluorescence based).
Where [5] appears, read: WRN Helicase IC50, 30 min preincubation with ATP, 30 min reaction.

From patent publication US20250188040A1, “PHARMACEUTICAL COMPOSITIONS COMPRISING WRN HELICASE INHIBITORS” (Vividion Therapeutics, Inc., priority 2022, published 2025) come the findings set out here.

Read-outs that look alike come from different tables or passages of the source.

Chain of hWRN(519-1227)_C-H3CV-GFP-10His (Q14191 519-1227): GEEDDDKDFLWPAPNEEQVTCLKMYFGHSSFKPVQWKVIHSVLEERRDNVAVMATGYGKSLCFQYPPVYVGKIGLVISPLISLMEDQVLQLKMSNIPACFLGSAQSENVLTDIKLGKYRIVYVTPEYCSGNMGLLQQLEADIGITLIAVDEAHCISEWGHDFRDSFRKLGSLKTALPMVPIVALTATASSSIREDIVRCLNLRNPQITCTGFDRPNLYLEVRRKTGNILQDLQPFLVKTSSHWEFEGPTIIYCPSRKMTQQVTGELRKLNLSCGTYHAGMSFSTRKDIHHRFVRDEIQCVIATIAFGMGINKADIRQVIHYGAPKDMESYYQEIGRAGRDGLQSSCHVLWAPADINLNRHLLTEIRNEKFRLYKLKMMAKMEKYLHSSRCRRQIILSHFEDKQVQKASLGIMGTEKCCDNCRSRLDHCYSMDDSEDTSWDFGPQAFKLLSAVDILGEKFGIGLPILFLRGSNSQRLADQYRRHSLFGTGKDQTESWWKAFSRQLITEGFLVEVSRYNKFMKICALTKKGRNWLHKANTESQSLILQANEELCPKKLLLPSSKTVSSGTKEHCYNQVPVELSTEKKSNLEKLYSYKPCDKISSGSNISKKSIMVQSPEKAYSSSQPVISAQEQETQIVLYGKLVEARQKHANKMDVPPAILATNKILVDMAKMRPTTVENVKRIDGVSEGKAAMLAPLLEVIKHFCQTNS
T1 sequence (Q14191 whole entry): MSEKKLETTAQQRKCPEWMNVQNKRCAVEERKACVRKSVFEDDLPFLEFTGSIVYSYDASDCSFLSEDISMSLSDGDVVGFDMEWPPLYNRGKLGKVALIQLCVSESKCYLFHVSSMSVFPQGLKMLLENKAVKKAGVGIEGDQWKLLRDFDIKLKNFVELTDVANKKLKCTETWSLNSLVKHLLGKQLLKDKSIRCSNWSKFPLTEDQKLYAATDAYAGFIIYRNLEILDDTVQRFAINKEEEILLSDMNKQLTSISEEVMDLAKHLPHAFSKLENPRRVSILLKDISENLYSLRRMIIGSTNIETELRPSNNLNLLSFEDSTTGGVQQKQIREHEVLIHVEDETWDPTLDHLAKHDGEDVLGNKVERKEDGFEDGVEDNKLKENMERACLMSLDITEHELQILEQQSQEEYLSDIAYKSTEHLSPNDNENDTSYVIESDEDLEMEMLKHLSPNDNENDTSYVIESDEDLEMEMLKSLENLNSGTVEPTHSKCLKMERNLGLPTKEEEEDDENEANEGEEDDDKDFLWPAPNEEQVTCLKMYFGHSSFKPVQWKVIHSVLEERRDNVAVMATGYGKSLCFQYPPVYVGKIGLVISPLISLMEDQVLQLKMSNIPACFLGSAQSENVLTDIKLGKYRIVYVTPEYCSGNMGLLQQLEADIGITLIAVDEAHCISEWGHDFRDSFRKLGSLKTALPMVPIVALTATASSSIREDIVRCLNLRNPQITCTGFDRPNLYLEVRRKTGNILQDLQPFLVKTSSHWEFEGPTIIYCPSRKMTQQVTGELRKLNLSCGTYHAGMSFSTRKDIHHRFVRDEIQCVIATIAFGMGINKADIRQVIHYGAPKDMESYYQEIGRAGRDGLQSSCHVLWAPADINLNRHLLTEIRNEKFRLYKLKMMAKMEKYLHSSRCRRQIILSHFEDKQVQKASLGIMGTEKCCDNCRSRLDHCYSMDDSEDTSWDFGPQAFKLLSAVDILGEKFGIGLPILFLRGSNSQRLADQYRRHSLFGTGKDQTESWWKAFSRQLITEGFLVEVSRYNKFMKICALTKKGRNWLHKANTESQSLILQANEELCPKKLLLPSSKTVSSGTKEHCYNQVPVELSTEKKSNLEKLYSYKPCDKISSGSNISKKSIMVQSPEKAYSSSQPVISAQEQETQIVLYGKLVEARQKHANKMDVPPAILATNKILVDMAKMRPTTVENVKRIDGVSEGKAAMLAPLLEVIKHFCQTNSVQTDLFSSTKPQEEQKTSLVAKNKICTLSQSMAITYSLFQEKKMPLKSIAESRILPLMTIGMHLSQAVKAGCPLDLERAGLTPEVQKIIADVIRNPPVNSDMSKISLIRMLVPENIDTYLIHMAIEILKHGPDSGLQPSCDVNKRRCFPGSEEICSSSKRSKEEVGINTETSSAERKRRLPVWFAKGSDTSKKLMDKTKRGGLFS

By GI50 is commonly meant the concentration giving 50% growth inhibition. Take `CN(CC(F)(F)F)c1ncc(C(=O)N[C@H](/C=C/S(C)(=O)=O)C2CC2)c(Oc2ccccc2)n1` [Example 184, (S,E)-N-(1-cyclopropyl-3-(methylsulfonyl)allyl)-2-(methyl(2,2,2-trifluoroethyl)amino)-4-phenoxypyrimidine-5-carboxamide]: the GI50 in experiment [1] is 0.191 µM; in experiment [3] it was 3.1 µM. The IC50 in experiment [2] was determined as 1.3 µM; in experiment [4] (setting [5]), 2.4 µM.

Take `CCN(C)c1ncc(C(=O)N[C@H](/C=C/S(C)(=O)=O)C2CC2)c(Oc2ccccc2)n1` [Example 185, (S,E)-N-(1-cyclopropyl-3-(methylsulfonyl)allyl)-2-(ethyl(methyl)amino)-4-phenoxypyrimidine-5-carboxamide]: the GI50 in experiment [1] came out at 0.0274 µM; in experiment [3] it was 5.4 µM. Also, the figures for the IC50 in experiment [2] and in experiment [4] (setting [5]) were 1.72 µM and 0.239 µM, respectively.

Regarding `CC(C)N(C)c1ncc(C(=O)N[C@H](/C=C/S(C)(=O)=O)C2CC2)c(Oc2ccccc2)n1` [Example 186, (S,E)-N-(1-cyclopropyl-3-(methylsulfonyl)allyl)-2-(isopropyl(methyl)amino)-4-phenoxypyrimidine-5-carboxamide], the GI50 in experiment [1] is 0.0195 µM; in experiment [3], 3.3 µM. The IC50 was found to be 0.42 µM in experiment [2] and 0.2 µM in experiment [4] (setting [5]).

`CC(=O)C=C1CN(C(=O)c2cnc(C(C)(C)C)nc2Oc2ccccc2)C1` [Example 190, 1-(1-(2-(tert-butyl)-4-phenoxypyrimidine-5-carbonyl)azetidin-3-ylidene)propan-2-one]: the values for the GI50 in experiment [1] and in experiment [3] were 0.53 µM and 5.4 µM, respectively. Also, the IC50 in experiment [2] was determined as 0.69 µM; in experiment [4], 0.31 µM.

On to `COC(=O)C=C1CN(C(=O)c2cnc(C(C)(C)C)nc2Oc2ccccc2)C1` [Example 191, methyl 2-(1-(2-(tert-butyl)-4-phenoxypyrimidine-5-carbonyl)azetidin-3-ylidene)acetate], for which the figures for the GI50 in experiment [1] and in experiment [3] were 0.26 µM and 7.4 µM, respectively. Further, the IC50 came out at 2.19 µM in experiment [2] and 0.91 µM in experiment [4].

Consider `C[C@@H](/C=C/S(C)(=O)=O)NC(=O)c1cnc(C2CCCC2)nc1OC1CCCC1` [Example 197, (S,E)-2-cyclopentyl-4-(cyclopentyloxy)-N-(4-(methylsulfonyl)but-3-en-2-yl)pyrimidine-5-carboxamide], for which the values for the GI50 in experiment [1] and in experiment [3] were 0.709 µM and 6.19 µM, respectively. Moreover, the IC50 stood at 6.24 µM in experiment [2] and 1.69 µM in experiment [4] (setting [5]).

Regarding `C[C@@H](/C=C/S(C)(=O)=O)NC(=O)c1cnc(C2=CCCC2)cc1Oc1ccccc1` [Example 200, (S,E)-6-(cyclopent-1-en-1-yl)-N-(4-(methylsulfonyl)but-3-en-2-yl)-4-phenoxynicotinamide], the 50% growth inhibitory concentration (GI50) in experiment [1] was 3.6 µM; in experiment [3], greater than 10 µM. Moreover, the IC50 in experiment [2] was determined as 21.7 µM; in experiment [4] (setting [5]) it was 4.5 µM.

With `C[C@@H](/C=C/S(C)(=O)=O)NC(=O)c1ccc(C2=CCCC2)nc1Oc1ccccc1` [Example 202, (S,E)-6-(cyclopent-1-en-1-yl)-N-(4-(methylsulfonyl)but-3-en-2-yl)-2-phenoxynicotinamide], the results for the GI50 in experiment [1] and in experiment [3] were 7.2 µM and greater than 10 µM, respectively. For the same molecule, the values for the IC50 in experiment [2] and in experiment [4] (setting [5]) were 75 µM and 8.6 µM, respectively.

Consider `CC(C)=Cc1ncc(C(=O)N[C@@H](C)/C=C/S(C)(=O)=O)c(Oc2ccccc2)n1` [Example 213, (S,E)-2-(2-methylprop-1-en-1-yl)-N-(4-(methylsulfonyl)but-3-en-2-yl)-4-phenoxypyrimidine-5-carboxamide], for which the GI50 was 2.16 µM in experiment [1] and 12.7 µM in experiment [3]. Moreover, the IC50 in experiment [2] is greater than 100 µM; in experiment [4] (setting [5]) it was 11 µM.

For `CC(C)Cc1ncc(C(=O)N[C@@H](C)/C=C/S(C)(=O)=O)c(Oc2ccccc2)n1` [Example 214, (S,E)-2-isobutyl-N-(4-(methylsulfonyl)but-3-en-2-yl)-4-phenoxypyrimidine-5-carboxamide], the concentration for 50% growth inhibition (GI50) in experiment [1] was 2.47 µM; in experiment [3], greater than 19.5 µM. For the same molecule, the IC50 in experiment [2] is greater than 100 µM; in experiment [4] (setting [5]), 10 µM.

As for `C[C@@H](/C=C/S(C)(=O)=O)NC(=O)c1cnc(C2(O)CCCC2)nc1Oc1ccccc1` [Example 216, (S,E)-2-(1-hydroxycyclopentyl)-N-(4-(methylsulfonyl)but-3-en-2-yl)-4-phenoxypyrimidine-5-carboxamide], the concentration for 50% growth inhibition (GI50) in experiment [1] is 2.2 µM; in experiment [3], greater than 10 µM. The IC50 in experiment [2] came out at 13.8 µM; in experiment [4] (setting [5]), 7.74 µM.

As for `C[C@@H](/C=C/S(C)(=O)=O)NC(=O)c1cnc(C(C)(C)O)nc1Oc1ccccc1` [Example 218, (S,E)-2-(2-hydroxypropan-2-yl)-N-(4-(methylsulfonyl)but-3-en-2-yl)-4-phenoxypyrimidine-5-carboxamide], the GI50 in experiment [1] is 1.38 µM; in experiment [3] it was greater than 29.3 µM. In addition, the IC50 is 17.1 µM in experiment [2] and 4.3 µM in experiment [4] (setting [5]).

As for `COC(C)(C)c1ncc(C(=O)N[C@@H](C)/C=C/S(C)(=O)=O)c(Oc2ccccc2)n1` [Example 221, (S,E)-2-(2-methoxypropan-2-yl)-N-(4-(methylsulfonyl)but-3-en-2-yl)-4-phenoxypyrimidine-5-carboxamide], the values for the concentration for 50% growth inhibition (GI50) in experiment [1] and in experiment [3] were 2 µM and 52 µM, respectively. In addition, the IC50 came out at 20 µM in experiment [2] and 8.3 µM in experiment [4] (setting [5]).

Turning to `C[C@@H](/C=C/S(C)(=O)=O)NC(=O)c1cnc(C23CC(C2)C3)nc1Oc1ccccc1` [Example 222, (S,E)-2-(bicyclo[1.1.1]pentan-1-yl)-N-(4-(methylsulfonyl)but-3-en-2-yl)-4-phenoxypyrimidine-5-carboxamide], the 50% growth inhibitory concentration (GI50) was 0.133 µM in experiment [1] and greater than 15 µM in experiment [3]. The results for the IC50 in experiment [2] and in experiment [4] (setting [5]) were 1.3 µM and 0.444 µM, respectively.

Regarding `C[C@@H](/C=C/S(C)(=O)=O)NC(=O)c1cnc(C(F)(F)C2CC2)nc1Oc1ccccc1` [Example 223, (S,E)-2-(cyclopropyldifluoromethyl)-N-(4-(methylsulfonyl)but-3-en-2-yl)-4-phenoxypyrimidine-5-carboxamide], the results for the concentration for 50% growth inhibition (GI50) in experiment [1] and in experiment [3] were 0.0539 µM and 19 µM, respectively. For the same molecule, the IC50 in experiment [2] amounted to 0.23 µM; in experiment [4] (setting [5]), 0.18 µM.

On to `CCC(F)(F)c1ncc(C(=O)N[C@H](/C=C/S(C)(=O)=O)C2CC2)c(Oc2ccccc2)n1` [Example 230, (S,E)-N-(1-cyclopropyl-3-(methylsulfonyl)allyl)-2-(1,1-difluoropropyl)-4-phenoxypyrimidine-5-carboxamide], for which the values for the 50% growth inhibitory concentration (GI50) in experiment [1] and in experiment [3] were 0.0166 µM and 14 µM, respectively. The IC50 was found to be 0.81 µM in experiment [2] and 0.11 µM in experiment [4] (setting [5]).

Consider `CC(F)(F)c1cc(Oc2ccccc2)c(C(=O)N[C@H](/C=C/S(C)(=O)=O)C2CC2)cn1` [Example 231, (S,E)-N-(1-cyclopropyl-3-(methylsulfonyl)allyl)-6-(1,1-difluoroethyl)-4-phenoxynicotinamide], for which the values for the concentration for 50% growth inhibition (GI50) in experiment [1] and in experiment [3] were 0.038 µM and 61 µM, respectively. Also, the IC50 was determined as 0.42 µM in experiment [2] and 0.21 µM in experiment [4] (setting [5]).

`C[C@@H](/C=C/S(C)(=O)=O)NC(=O)c1ccc(C(C)(F)F)nc1Oc1ccccc1` [Example 232, (S,E)-6-(1,1-difluoroethyl)-N-(4-(methylsulfonyl)but-3-en-2-yl)-2-phenoxynicotinamide]: the results for the concentration for 50% growth inhibition (GI50) in experiment [1] and in experiment [3] were 0.0699 µM and 28.1 µM, respectively. Further, the figures for the IC50 in experiment [2] and in experiment [4] (setting [5]) were 2.36 µM and 0.3 µM, respectively.

Regarding `CC(F)(F)c1ccc(C(=O)N[C@H](/C=C/S(C)(=O)=O)C2CC2)c(Oc2ccccc2)n1` [Example 233, (S,E)-N-(1-cyclopropyl-3-(methylsulfonyl)allyl)-6-(1,1-difluoroethyl)-2-phenoxynicotinamide], the values for the 50% growth inhibitory concentration (GI50) in experiment [1] and in experiment [3] were 0.0199 µM and 17 µM, respectively. Also, the IC50 in experiment [2] turned out to be 0.48 µM; in experiment [4] (setting [5]), 0.072 µM.

As to `CC(F)(F)c1nc(Oc2ccccc2)c(C(=O)N[C@H](/C=C/S(C)(=O)=O)C2CC2)cc1F` [Example 235, (S,E)-N-(1-cyclopropyl-3-(methylsulfonyl)allyl)-6-(1,1-difluoroethyl)-5-fluoro-2-phenoxynicotinamide], the GI50 in experiment [1] is 0.0394 µM; in experiment [3] it was 8.3 µM. The IC50 amounted to 70 µM in experiment [2] and 0.0893 µM in experiment [4] (setting [5]).

With `C[C@@H](/C=C/S(C)(=O)=O)NC(=O)c1cc2c(cc1Oc1ccccc1)CCC2=O` [Example 247, (S,E)-N-(4-(methylsulfonyl)but-3-en-2-yl)-3-oxo-6-phenoxy-2,3-dihydro-1H-indene-5-carboxamide], the GI50 in experiment [1] was 6.5 µM; in experiment [3] it was greater than 10 µM. In addition, the IC50 was determined as 30 µM in experiment [2] and 8.5 µM in experiment [4].

In the case of `Cn1ccc2cc(C(=O)N[C@H](/C=C/S(C)(=O)=O)C3CC3)c(Oc3ccccc3)nc21` [Example 250, (S,E)-N-(1-cyclopropyl-3-(methylsulfonyl)allyl)-1-methyl-6-phenoxy-1H-pyrrolo[2,3-b]pyridine-5-carboxamide], the 50% growth inhibitory concentration (GI50) is 1.14 µM in experiment [1] and 44.9 µM in experiment [3]. The results for the IC50 in experiment [2] and in experiment [4] (setting [5]) were 0.62 µM and 4.5 µM, respectively.

Consider `Cn1ncc2cc(C(=O)N[C@H](/C=C/S(C)(=O)=O)C3CC3)c(Oc3ccccc3)nc21` [Example 252, (S,E)-N-(1-cyclopropyl-3-(methylsulfonyl)allyl)-1-methyl-6-phenoxy-1H-pyrazolo[3,4-b]pyridine-5-carboxamide], for which the GI50 was 2.1 µM in experiment [1] and greater than 30 µM in experiment [3]. Besides, the results for the IC50 in experiment [2] and in experiment [4] (setting [5]) were 0.35 µM and 12 µM, respectively.
